# According to ChEMBL document CHEMBL5505966, “Synthesis and pharmacological characterization of conformationally restricted 2-amino-Adipic acid analogs and carboxycyclopropyl glycines as selective metabotropic glutamate 2 receptor agonists” (Eur J Med Chem, 2024):
# pEC50: −log10 of the molar value. Active and inactive are the calls of the source. The rule behind the calls is not given here.
# Legend:
# [1] = biological target: Metabotropic glutamate receptor 4 (Rattus norvegicus, UniProt P31423); assay: Agonist activity at rat mGluR4 receptor expressed in HEK293 cells by IP-1 HTRF assay; format: functional, cell-based
# Chain of Metabotropic glutamate receptor 4 (P31423 whole entry): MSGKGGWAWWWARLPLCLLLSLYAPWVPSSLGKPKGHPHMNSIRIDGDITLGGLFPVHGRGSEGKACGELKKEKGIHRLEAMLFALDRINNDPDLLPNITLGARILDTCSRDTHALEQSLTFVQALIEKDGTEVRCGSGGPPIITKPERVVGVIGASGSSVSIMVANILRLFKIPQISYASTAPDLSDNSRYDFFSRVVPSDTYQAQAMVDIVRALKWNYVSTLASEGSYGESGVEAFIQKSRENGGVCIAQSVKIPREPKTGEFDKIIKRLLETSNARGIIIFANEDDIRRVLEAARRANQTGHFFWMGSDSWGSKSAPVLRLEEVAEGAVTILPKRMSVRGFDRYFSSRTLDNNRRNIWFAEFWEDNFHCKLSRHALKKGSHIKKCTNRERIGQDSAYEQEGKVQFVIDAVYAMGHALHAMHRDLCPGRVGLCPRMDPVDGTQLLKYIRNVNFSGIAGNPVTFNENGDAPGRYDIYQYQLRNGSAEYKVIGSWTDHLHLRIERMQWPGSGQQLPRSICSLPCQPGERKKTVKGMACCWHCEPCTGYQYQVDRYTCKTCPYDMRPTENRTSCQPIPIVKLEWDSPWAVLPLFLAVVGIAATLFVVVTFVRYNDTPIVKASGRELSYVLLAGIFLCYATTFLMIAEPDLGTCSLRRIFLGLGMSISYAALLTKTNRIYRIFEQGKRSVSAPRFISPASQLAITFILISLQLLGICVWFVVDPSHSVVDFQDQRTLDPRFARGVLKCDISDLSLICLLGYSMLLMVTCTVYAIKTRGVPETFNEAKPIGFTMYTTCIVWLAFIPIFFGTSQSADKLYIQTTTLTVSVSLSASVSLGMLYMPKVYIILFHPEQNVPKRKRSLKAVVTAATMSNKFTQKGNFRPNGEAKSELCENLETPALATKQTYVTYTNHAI
# [2] = biological target: Metabotropic glutamate receptor 7 (Rattus norvegicus, UniProt P35400); assay: Agonist activity at rat mGluR7 receptor expressed in HEK293 cells by IP-1 HTRF assay; format: functional, cell-based
# Chain of Metabotropic glutamate receptor 7 (P35400 whole entry): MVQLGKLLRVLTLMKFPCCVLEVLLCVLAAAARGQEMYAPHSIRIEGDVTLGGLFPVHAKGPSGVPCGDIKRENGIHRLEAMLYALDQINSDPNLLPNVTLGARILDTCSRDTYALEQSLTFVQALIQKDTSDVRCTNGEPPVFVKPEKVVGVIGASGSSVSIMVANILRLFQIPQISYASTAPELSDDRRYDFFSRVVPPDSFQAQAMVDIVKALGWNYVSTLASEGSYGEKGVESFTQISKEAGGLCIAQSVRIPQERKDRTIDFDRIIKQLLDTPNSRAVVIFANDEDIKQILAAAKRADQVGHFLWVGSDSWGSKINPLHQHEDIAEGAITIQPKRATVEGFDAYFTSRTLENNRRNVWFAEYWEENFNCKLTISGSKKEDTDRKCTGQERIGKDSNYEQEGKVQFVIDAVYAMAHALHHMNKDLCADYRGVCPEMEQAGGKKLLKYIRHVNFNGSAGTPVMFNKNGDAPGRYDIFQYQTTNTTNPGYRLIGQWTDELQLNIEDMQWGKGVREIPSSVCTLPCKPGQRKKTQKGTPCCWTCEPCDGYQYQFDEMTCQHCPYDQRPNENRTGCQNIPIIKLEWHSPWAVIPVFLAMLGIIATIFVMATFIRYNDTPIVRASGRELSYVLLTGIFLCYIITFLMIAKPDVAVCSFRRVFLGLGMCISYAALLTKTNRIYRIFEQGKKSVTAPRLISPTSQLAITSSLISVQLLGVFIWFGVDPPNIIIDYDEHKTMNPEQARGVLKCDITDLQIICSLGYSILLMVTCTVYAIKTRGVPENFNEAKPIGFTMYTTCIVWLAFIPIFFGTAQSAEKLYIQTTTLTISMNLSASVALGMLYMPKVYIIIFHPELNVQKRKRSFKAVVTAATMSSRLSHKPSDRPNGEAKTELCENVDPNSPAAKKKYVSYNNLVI
# [3] = biological target: Metabotropic glutamate receptor 6 (Rattus norvegicus, UniProt P35349); assay: Agonist activity at rat mGluR6 receptor expressed in HEK293 cells by IP-1 HTRF assay; format: functional, cell-based; conditions: for pEC50: read-out: EC50
# [4] = biological target: Metabotropic glutamate receptor 8 (Rattus norvegicus, UniProt P70579); assay: Agonist activity at rat mGluR8 receptor expressed in HEK293 cells by IP-1 HTRF assay; format: functional, cell-based
# Chain of Metabotropic glutamate receptor 8 (P70579 whole entry): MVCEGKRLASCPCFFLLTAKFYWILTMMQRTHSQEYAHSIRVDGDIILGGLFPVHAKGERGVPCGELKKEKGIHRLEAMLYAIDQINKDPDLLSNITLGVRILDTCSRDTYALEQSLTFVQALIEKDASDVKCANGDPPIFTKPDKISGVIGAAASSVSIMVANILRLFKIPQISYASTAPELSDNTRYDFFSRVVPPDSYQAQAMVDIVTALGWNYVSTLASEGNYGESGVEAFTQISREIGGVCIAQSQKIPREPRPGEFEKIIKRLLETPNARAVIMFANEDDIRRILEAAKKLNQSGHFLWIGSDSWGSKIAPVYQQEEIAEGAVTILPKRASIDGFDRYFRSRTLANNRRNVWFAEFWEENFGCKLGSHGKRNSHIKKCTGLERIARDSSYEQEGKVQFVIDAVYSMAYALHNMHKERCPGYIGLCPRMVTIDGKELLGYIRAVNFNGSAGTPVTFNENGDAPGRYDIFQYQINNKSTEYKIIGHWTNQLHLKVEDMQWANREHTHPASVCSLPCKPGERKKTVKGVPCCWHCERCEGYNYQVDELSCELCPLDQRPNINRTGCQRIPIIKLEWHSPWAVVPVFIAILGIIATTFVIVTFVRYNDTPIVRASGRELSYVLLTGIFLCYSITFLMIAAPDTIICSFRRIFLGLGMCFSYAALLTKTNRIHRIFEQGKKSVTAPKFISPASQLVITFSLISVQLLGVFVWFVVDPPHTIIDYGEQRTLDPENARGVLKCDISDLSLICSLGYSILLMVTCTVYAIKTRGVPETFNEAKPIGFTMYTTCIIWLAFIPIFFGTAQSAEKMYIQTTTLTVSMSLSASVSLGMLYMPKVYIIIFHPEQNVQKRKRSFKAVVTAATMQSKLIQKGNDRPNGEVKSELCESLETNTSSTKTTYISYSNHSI
# [5] = biological target: Metabotropic glutamate receptor 1 (Rattus norvegicus, UniProt P23385); assay: Agonist activity at rat mGluR1 receptor expressed in HEK293 cells by IP-1 HTRF assay; format: functional, cell-based; conditions: for pEC50: read-out: EC50
# Chain of Metabotropic glutamate receptor 1 (P23385 whole entry): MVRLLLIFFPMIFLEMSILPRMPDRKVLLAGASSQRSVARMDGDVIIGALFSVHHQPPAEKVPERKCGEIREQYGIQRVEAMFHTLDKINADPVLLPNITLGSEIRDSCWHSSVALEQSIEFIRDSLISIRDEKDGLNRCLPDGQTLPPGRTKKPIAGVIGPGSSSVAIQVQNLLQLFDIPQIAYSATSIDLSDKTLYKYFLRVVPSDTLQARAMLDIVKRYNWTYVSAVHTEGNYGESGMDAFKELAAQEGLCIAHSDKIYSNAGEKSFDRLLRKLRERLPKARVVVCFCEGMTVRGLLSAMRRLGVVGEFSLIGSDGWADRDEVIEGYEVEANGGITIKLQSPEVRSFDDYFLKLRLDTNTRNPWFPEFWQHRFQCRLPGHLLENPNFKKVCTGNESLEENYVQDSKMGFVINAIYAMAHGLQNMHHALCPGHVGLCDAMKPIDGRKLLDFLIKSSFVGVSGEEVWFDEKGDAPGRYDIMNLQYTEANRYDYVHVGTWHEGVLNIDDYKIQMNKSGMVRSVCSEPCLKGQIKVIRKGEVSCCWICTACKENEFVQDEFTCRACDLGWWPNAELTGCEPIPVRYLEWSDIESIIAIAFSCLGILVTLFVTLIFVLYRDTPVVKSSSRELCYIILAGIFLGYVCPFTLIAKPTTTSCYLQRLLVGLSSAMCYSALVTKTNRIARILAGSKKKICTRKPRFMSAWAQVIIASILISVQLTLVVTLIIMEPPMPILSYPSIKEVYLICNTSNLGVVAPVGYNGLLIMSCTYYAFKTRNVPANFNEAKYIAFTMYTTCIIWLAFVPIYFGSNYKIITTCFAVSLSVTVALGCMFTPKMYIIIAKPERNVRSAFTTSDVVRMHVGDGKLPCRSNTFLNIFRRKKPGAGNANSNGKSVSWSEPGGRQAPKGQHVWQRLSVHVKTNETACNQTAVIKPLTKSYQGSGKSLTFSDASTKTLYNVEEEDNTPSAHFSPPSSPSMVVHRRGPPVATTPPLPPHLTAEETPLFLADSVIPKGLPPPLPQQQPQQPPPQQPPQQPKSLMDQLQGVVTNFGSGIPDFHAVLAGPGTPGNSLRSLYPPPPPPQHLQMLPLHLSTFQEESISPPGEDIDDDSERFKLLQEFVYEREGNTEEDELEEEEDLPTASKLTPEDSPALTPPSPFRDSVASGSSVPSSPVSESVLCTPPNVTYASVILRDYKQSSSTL
# [6] = biological target: Metabotropic glutamate receptor 1 (Rattus norvegicus) (UniProt P23385); assay: Antagonist activity at rat mGluR1 receptor expressed in HEK293 cells by IP-1 HTRF assay; format: functional, cell-based
# [7] = biological target: Metabotropic glutamate receptor 4 (Rattus norvegicus) (UniProt P31423); assay: Antagonist activity at rat mGluR4 receptor expressed in HEK293 cells by IP-1 HTRF assay; format: functional, cell-based
# Chain of Metabotropic glutamate receptor 4 (Rattus norvegicus) (P31423 whole entry): as the sequence (P31423 whole entry) above
# [8] = biological target: Metabotropic glutamate receptor 5 (Rattus norvegicus, UniProt P31424); assay: Agonist activity at rat mGluR5 receptor expressed in HEK293 cells by IP-1 HTRF assay; format: functional, cell-based; conditions: for pEC50: read-out: EC50
# [9] = biological target: Metabotropic glutamate receptor 6 (Rattus norvegicus) (UniProt P35349); assay: Antagonist activity at rat mGluR6 receptor expressed in HEK293 cells by IP-1 HTRF assay; format: functional, cell-based
# [10] = biological target: Metabotropic glutamate receptor 3 (Rattus norvegicus) (UniProt P31422); assay: Antagonist activity at rat mGluR3 receptor expressed in HEK293 cells by IP-1 HTRF assay; format: functional, cell-based
# [11] = biological target: Metabotropic glutamate receptor 5 (Rattus norvegicus) (UniProt P31424); assay: Antagonist activity at rat mGluR5 receptor expressed in HEK293 cells by IP-1 HTRF assay; format: functional, cell-based
# [12] = biological target: Metabotropic glutamate receptor 2 (Rattus norvegicus) (UniProt P31421); assay: Antagonist activity at rat mGluR2 receptor expressed in HEK293 cells by IP-1 HTRF assay; format: functional, cell-based
# [13] = biological target: Metabotropic glutamate receptor 7 (Rattus norvegicus) (UniProt P35400); assay: Antagonist activity at rat mGluR7 receptor expressed in HEK293 cells by IP-1 HTRF assay; format: functional, cell-based
# Chain of Metabotropic glutamate receptor 7 (Rattus norvegicus) (P35400 whole entry): as the sequence (P35400 whole entry) above
# [14] = biological target: Metabotropic glutamate receptor 8 (Rattus norvegicus) (UniProt P70579); assay: Antagonist activity at rat mGluR8 receptor expressed in HEK293 cells by IP-1 HTRF assay; format: functional, cell-based
# Chain of Metabotropic glutamate receptor 8 (Rattus norvegicus) (P70579 whole entry): as the sequence (P70579 whole entry) above
# [15] = biological target: Metabotropic glutamate receptor 3 (Rattus norvegicus, UniProt P31422); assay: Agonist activity at rat mGluR3 receptor expressed in HEK293 cells by IP-1 HTRF assay; format: functional, cell-based
# Chain of Metabotropic glutamate receptor 3 (Rattus norvegicus, UniProt P31422) (P31422 whole entry): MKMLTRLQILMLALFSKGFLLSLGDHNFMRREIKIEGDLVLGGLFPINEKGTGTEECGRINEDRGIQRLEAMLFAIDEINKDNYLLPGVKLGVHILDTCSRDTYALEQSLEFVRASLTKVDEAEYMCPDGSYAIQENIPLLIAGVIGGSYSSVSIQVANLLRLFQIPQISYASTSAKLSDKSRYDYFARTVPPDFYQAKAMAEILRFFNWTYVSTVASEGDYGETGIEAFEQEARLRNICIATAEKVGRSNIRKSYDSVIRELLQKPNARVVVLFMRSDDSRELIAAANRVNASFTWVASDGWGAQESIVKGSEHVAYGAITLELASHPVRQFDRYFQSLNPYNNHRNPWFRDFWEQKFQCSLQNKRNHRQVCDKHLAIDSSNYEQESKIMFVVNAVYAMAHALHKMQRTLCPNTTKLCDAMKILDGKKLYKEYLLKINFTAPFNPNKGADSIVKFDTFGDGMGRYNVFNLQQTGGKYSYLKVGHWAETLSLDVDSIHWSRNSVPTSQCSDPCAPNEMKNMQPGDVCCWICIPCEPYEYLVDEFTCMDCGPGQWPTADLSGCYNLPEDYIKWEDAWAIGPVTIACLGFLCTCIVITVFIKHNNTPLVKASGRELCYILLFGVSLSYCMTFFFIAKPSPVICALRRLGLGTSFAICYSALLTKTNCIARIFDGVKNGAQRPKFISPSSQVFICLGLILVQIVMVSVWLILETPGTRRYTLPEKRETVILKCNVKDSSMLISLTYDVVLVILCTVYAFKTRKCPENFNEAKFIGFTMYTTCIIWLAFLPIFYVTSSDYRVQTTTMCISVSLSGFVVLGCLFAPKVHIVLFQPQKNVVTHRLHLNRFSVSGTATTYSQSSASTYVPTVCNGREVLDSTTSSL
# [16] = biological target: Metabotropic glutamate receptor 2 (Rattus norvegicus, UniProt P31421); assay: Agonist activity at rat mGluR2 receptor expressed in HEK293 cells by IP-1 HTRF assay; format: functional, cell-based; conditions: for pEC50: read-out: EC50; for EC50: read-out: pEC50 (converted)
# [17] = biological target: Metabotropic glutamate receptor 4 (Rattus norvegicus) (UniProt P31423); assay: Agonist activity at rat mGluR4 receptor expressed in HEK293 cells at 100 uM by IP-1 HTRF assay; format: functional, cell-based
# [18] = biological target: Metabotropic glutamate receptor 3 (Rattus norvegicus) (UniProt P31422); assay: Agonist activity at rat mGluR3 receptor expressed in HEK293 cells at 100 uM by IP-1 HTRF assay; format: functional, cell-based
# [19] = biological target: Metabotropic glutamate receptor 1 (Rattus norvegicus) (UniProt P23385); assay: Agonist activity at rat mGluR1 receptor expressed in HEK293 cells at 100 uM by IP-1 HTRF assay; format: functional, cell-based
# [20] = biological target: Metabotropic glutamate receptor 7 (Rattus norvegicus) (UniProt P35400); assay: Agonist activity at rat mGluR7 receptor expressed in HEK293 cells at 100 uM by IP-1 HTRF assay; format: functional, cell-based
# [21] = biological target: Metabotropic glutamate receptor 8 (Rattus norvegicus) (UniProt P70579); assay: Agonist activity at rat mGluR8 receptor expressed in HEK293 cells at 100 uM by IP-1 HTRF assay; format: functional, cell-based
# [22] = biological target: Metabotropic glutamate receptor 6 (Rattus norvegicus) (UniProt P35349); assay: Agonist activity at rat mGluR6 receptor expressed in HEK293 cells at 100 uM by IP-1 HTRF assay; format: functional, cell-based
# [23] = biological target: Metabotropic glutamate receptor 5 (Rattus norvegicus) (UniProt P31424); assay: Agonist activity at rat mGluR5 receptor expressed in HEK293 cells at 100 uM by IP-1 HTRF assay; format: functional, cell-based
# [24] = biological target: T1, Metabotropic glutamate receptor 2 (Homo sapiens, UniProt Q14416); assay: Agonist activity at mGluR2 receptor (unknown origin); format: functional
# [25] = biological target: Metabotropic glutamate receptor 2 (Rattus norvegicus) (UniProt P31421); assay: Agonist activity at rat mGluR2 receptor expressed in HEK293 cells at 100 uM by IP-1 HTRF assay; format: functional, cell-based
# [26] = biological target: T1, Metabotropic glutamate receptor 2; assay: Agonist activity at human recombinant mGluR2 receptor assessed as inhibition of forskolin-stimulated [3H]cAMP accumulation incubated for 20 mins by SPA kit analysis; format: functional
# [27] = biological target: Metabotropic glutamate receptor 3 (Homo sapiens, UniProt Q14832); assay: Agonist activity at human recombinant mGluR3 receptor assessed as inhibition of forskolin-stimulated [3H]cAMP accumulation incubated for 20 mins by SPA kit analysis; format: functional
# [28] = biological target: Metabotropic glutamate receptor 8 (Rattus norvegicus) (UniProt P70579); assay: Agonist activity at rat mGluR8 receptor expressed in HEK293 cells at 30 uM by IP-1 HTRF assay; format: functional, cell-based
# [29] = biological target: Metabotropic glutamate receptor 4 (Rattus norvegicus) (UniProt P31423); assay: Agonist activity at rat mGluR4 receptor expressed in HEK293 cells at 30 uM by IP-1 HTRF assay; format: functional, cell-based
# Rattus norvegicus [30] = organism: Rattus norvegicus; assay: Selectivity ratio of EC50 for agonist activity at rat mGluR3 receptor expressed in HEK293 cells to EC50 for agonist activity at rat mGluR2 receptor expressed in HEK293 cells; format: cell-based
# Rattus norvegicus [31] = organism: Rattus norvegicus; assay: Selectivity ratio of EC50 for agonist activity at rat mGluR5 receptor expressed in HEK293 cells to EC50 for agonist activity at rat mGluR2 receptor expressed in HEK293 cells; format: cell-based
# Rattus norvegicus [32] = organism: Rattus norvegicus; assay: Selectivity ratio of EC50 for agonist activity at rat mGluR1 receptor expressed in HEK293 cells to EC50 for agonist activity at rat mGluR2 receptor expressed in HEK293 cells; format: cell-based
# Rattus norvegicus [33] = organism: Rattus norvegicus; assay: Selectivity ratio of EC50 for agonist activity at rat mGluR8 receptor expressed in HEK293 cells to EC50 for agonist activity at rat mGluR2 receptor expressed in HEK293 cells; format: cell-based
# Rattus norvegicus [34] = organism: Rattus norvegicus; assay: Selectivity ratio of EC50 for agonist activity at rat mGluR6 receptor expressed in HEK293 cells to EC50 for agonist activity at rat mGluR2 receptor expressed in HEK293 cells; format: cell-based
# Rattus norvegicus [35] = organism: Rattus norvegicus; assay: Selectivity ratio of EC50 for agonist activity at rat mGluR7 receptor expressed in HEK293 cells to EC50 for agonist activity at rat mGluR2 receptor expressed in HEK293 cells; format: cell-based
# [36] = biological target: Metabotropic glutamate receptor 7 (Rattus norvegicus) (UniProt P35400); assay: Agonist activity at rat mGluR7 receptor expressed in HEK293 cells at 30 uM by IP-1 HTRF assay; format: functional, cell-based
# Rattus norvegicus [37] = organism: Rattus norvegicus; assay: Selectivity ratio of EC50 for agonist activity at rat mGluR4 receptor expressed in HEK293 cells to EC50 for agonist activity at rat mGluR2 receptor expressed in HEK293 cells; format: cell-based
# [38] = biological target: Metabotropic glutamate receptor 3 (Rattus norvegicus) (UniProt P31422); assay: Agonist activity at rat mGluR3 receptor expressed in HEK293 cells at 3 uM by IP-1 HTRF assay; format: functional, cell-based; conditions: filed as agonist
smiles,measurement,setting,value
N[C@@H](CCP(=O)(O)O)C(=O)O,pEC50,[1],~4.52
same,pEC50,[2],~4.52
same,pEC50,[3],5.60
same,pEC50,[4],~4.52
CC[C@@]1(C(=O)O)C[C@H]1[C@H](N)C(=O)O,pEC50,[5],< 4.52
same,inhibition,[6],inactive
same,pEC50,[1],< 4.52
same,inhibition,[7],inactive
same,pEC50,[8],< 4.52
same,pEC50,[2],< 4.52
same,inhibition,[9],inactive
same,inhibition,[10],inactive
same,inhibition,[11],inactive
same,pEC50,[3],4.58
same,inhibition,[12],inactive
same,pEC50,[4],< 4.52
same,inhibition,[13],inactive
same,inhibition,[14],inactive
same,pEC50,[15],< 4.52
same,pEC50,[16],5.75
same,EC50,[16],1.82 µM
C[C@@]1(C(=O)O)C[C@@H]1C[C@H](N)C(=O)O (mixture of isomers),Activity,[17],inactive
same,inhibition,[6],inactive
same,inhibition,[7],inactive
same,Activity,[18],inactive
same,inhibition,[9],inactive
same,inhibition,[10],inactive
same,inhibition,[11],inactive
same,inhibition,[12],inactive
same,Activity,[19],inactive
same,inhibition,[13],inactive
same,Activity,[20],inactive
same,inhibition,[14],inactive
same,Activity,[21],inactive
same,Activity,[22],inactive
same,Activity,[23],inactive
same,pEC50,[16],5.00
same,EC50,[16],15.8 µM
N[C@H](C(=O)O)[C@@H]1C[C@H]1C(=O)O,pEC50,[24],6.52
N[C@@H](C[C@H]1C[C@@H]1C(=O)O)C(=O)O,Activity,[17],inactive
same,inhibition,[6],inactive
same,inhibition,[7],inactive
same,Activity,[18],inactive
same,inhibition,[9],inactive
same,inhibition,[10],inactive
same,inhibition,[11],inactive
same,Activity,[25],inactive
same,inhibition,[12],inactive
same,Activity,[19],inactive
same,inhibition,[13],inactive
same,Activity,[20],inactive
same,inhibition,[14],inactive
same,Activity,[21],inactive
same,Activity,[22],inactive
same,Activity,[23],inactive
N[C@H](C(=O)O)[C@H]1C[C@@H]1C(=O)O,pEC50,[26],6.52
same,pEC50,[27],6.22
C[C@@]1(C(=O)O)C[C@H]1[C@H](N)C(=O)O,pEC50,[5],5.28
same,EC50,[5]; read-out: pEC50 (converted),5.13 µM
same,inhibition,[6],inactive
same,Activity,[28],inactive
same,inhibition,[7],inactive
same,pEC50,[8],4.97
same,EC50,[8]; read-out: pEC50 (converted),11.2 µM
same,inhibition,[9],inactive
same,inhibition,[10],inactive
same,Activity,[29],inactive
same,Ratio EC50,Rattus norvegicus [30],15
same,Ratio EC50,Rattus norvegicus [31],> 60
same,inhibition,[11],inactive
same,pEC50,[3],5.66
same,EC50,[3]; read-out: pEC50 (converted),2.14 µM
same,inhibition,[12],inactive
same,inhibition,[13],inactive
same,Ratio EC50,Rattus norvegicus [32],> 60
same,Ratio EC50,Rattus norvegicus [33],> 25
same,Ratio EC50,Rattus norvegicus [34],> 25
same,inhibition,[14],inactive
same,pEC50,[15],5.91
same,Ratio EC50,Rattus norvegicus [35],> 25
same,pEC50,[16],7.09
same,Activity,[36],inactive
same,Ratio EC50,Rattus norvegicus [37],> 25
C[C@H]1[C@H](C(=O)O)[C@H]1[C@H](N)C(=O)O,pEC50,[26],8.10
same,pEC50,[27],7.42
N[C@@]1(C(=O)O)CO[C@H]2[C@H](C(=O)O)[C@H]21 [LY-379268],Activity,[38],100%
same,pEC50,[15],8.05
same,pEC50,[16],9.22
